Target: BTK (Homo sapiens (Human), UniProt Q06187)
Experiment: BTK enzymatic activity assay (Caliper-based kinase assay)
Format: biochemical
Settings: human recombinant BTK 0.5 nM, ATP 16 μM, 3 h room temperature
Description: A Caliper-based kinase assay (Caliper Life Sciences, Hopkinton, Mass.) was used to measure inhibition of BTK kinase activity of a compound of the present disclosure. […] The reaction was then terminated with EDTA, final concentration 20 mM and the phosphorylated reaction product was quantified on a Caliper Desktop Profiler (Caliper LabChip 3000). […] This value is presented as the IC50.

BTK, sequence (Q06187 whole entry): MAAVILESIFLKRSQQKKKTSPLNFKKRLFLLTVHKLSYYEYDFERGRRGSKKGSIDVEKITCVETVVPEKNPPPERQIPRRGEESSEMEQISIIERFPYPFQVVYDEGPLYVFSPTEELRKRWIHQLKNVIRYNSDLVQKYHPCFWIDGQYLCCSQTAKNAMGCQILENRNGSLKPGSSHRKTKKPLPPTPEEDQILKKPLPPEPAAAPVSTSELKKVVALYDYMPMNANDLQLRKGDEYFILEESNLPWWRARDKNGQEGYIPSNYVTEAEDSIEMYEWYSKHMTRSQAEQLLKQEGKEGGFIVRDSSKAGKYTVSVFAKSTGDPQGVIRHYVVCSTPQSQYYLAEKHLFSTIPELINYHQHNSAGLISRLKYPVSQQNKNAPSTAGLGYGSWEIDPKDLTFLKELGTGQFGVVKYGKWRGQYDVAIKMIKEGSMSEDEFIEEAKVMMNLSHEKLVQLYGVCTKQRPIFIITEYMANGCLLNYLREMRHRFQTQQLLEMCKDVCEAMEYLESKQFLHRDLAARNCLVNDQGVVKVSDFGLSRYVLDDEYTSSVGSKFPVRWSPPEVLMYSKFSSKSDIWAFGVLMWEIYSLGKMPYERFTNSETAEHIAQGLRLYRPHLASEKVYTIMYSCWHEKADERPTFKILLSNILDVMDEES

Compound: CC1(C=C(C#N)C(=O)N2CCC[C@@H](n3c(=O)n(-c4ccc(Oc5ccccc5)cc4)c4c(N)nccc43)C2)CCOCC1 [Compound 37, (R)-2-(3-(4-amino-2-oxo-3-(4-phenoxyphenyl)-2,3-dihydro-1H-imidazo[4,5-c]pyridin-1-yl)piperidine-1-carbonyl)-3-(4-methyltetrahydro-2H-pyran-4-yl)acrylonitrile]
- IC50: 4.3 nM

Compound: CC(C)(C=C(C#N)C(=O)N1CCC[C@@H](n2c(=O)n(-c3ccc(Oc4ccccc4)cc3)c3c(N)nccc32)C1)N1CCC(F)(F)C1 [Compound 58, (R)-2-(3-(4-amino-2-oxo-3-(4-phenoxyphenyl)-2,3-dihydro-1H-imidazo[4,5-c]pyridin-1-yl)piperidine-1-carbonyl)-4-(3,3-difluoropyrrolidin-1-yl)-4-methylpent-2-enenitrile]
- IC50: 4.2 nM

Compound: CC(C)(C=C(C#N)C(=O)N1CCC[C@@H](n2c(=O)n(-c3ccc(Oc4ccccc4)cc3)c3c(N)nccc32)C1)N1CCN(C2(C)COC2)CC1 [Compound 30, (R)-2-(3-(4-amino-2-oxo-3-(4-phenoxyphenyl)-2,3-dihydro-1H-imidazo[4,5-c]pyridin-1-yl)piperidine-1-carbonyl)-4-methyl-4-(4-(3-methyloxetan-3-yl)piperazin-1-yl)pent-2-enenitrile]
- IC50: 1.5 nM

Compound: CC(C)(C=C(C#N)C(=O)N1CCC[C@@H](n2c(=O)n(-c3ccc(Oc4cccc(F)c4F)cc3)c3c(N)nccc32)C1)N1CCN(C2COC2)CC1 [Compound 25, (R)-2-(3-(4-amino-3-(4-(2,3-difluorophenoxy)phenyl)-2-oxo-2,3-dihydro-1H-imidazo[4,5-c]pyridin-1-yl)piperidine-1-carbonyl)-4-methyl-4-(4-(oxetan-3-yl)piperazin-1-yl)pent-2-enenitrile]
- IC50: 5.4 nM

Compound: CC(C)(C=C(C#N)C(=O)N1CCC[C@@H](n2c(=O)n(-c3ccc(Oc4ccccc4)cc3)c3c(N)nccc32)C1)N1CCn2cnnc2C1 [Compound 29, (R)-2-(3-(4-amino-2-oxo-3-(4-phenoxyphenyl)-2,3-dihydro-1H-imidazo[4,5-c]pyridin-1-yl)piperidine-1-carbonyl)-4-(5,6-dihydro-[1,2,4]triazolo[4,3-a]pyrazin-7(8H)-yl)-4-methylpent-2-enenitrile]
- IC50: 1.8 nM

Compound: Cc1cc(-n2c(=O)n([C@@H]3CCCN(C(=O)C(C#N)=CC(C)(C)N4CCN(C5COC5)CC4)C3)c3ccnc(N)c32)ccc1Oc1ccccc1 [Compound 28, (R)-2-(3-(4-amino-3-(3-methyl-4-phenoxyphenyl)-2-oxo-2,3-dihydro-1H-imidazo[4,5-c]pyridin-1-yl)piperidine-1-carbonyl)-4-methyl-4-(4-(oxetan-3-yl)piperazin-1-yl)pent-2-enenitrile]
- IC50: 4.8 nM

Compound: CC(C)(C=C(C#N)C(=O)N1CCC[C@@H](n2c(=O)n(-c3ccc(Oc4ccccc4)cc3)c3c(N)nccc32)C1)N1[C@@H]2CC[C@H]1COC2 [Compound 45, 2-((R)-3-(4-amino-2-oxo-3-(4-phenoxyphenyl)-2,3-dihydro-1H-imidazo[4,5-c]pyridin-1-yl)piperidine-1-carbonyl)-4-((1R,5S)-3-oxa-8-azabicyclo[3.2.1]octan-8-yl)-4-methylpent-2-enenitrile]
- IC50: 25.1 nM

Compound: CC(C)(C=C(C#N)C(=O)N1CCC[C@@H](n2c(=O)n(-c3ccc(Oc4ccccc4)cc3)c3c(N)nccc32)C1)N1CCNC(=O)C1 [Compound 21, (R)-2-(3-(4-amino-2-oxo-3-(4-phenoxyphenyl)-2,3-dihydro-1H-imidazo[4,5-c]pyridin-1-yl)piperidine-1-carbonyl)-4-methyl-4-(3-oxopiperazin-1-yl)pent-2-enenitrile]
- IC50: 4.6 nM

Compound: CC(C)(C=C(C#N)C(=O)N1CCC[C@@H](n2c(=O)n(-c3ccc(Oc4ccccc4)cc3)c3c(N)nccc32)C1)c1ccccn1 [Compound 55, (R)-2-(3-(4-amino-2-oxo-3-(4-phenoxyphenyl)-2,3-dihydro-1H-imidazo[4,5-c]pyridin-1-yl)piperidine-1-carbonyl)-4-methyl-4-(pyridin-2-yl)pent-2-enenitrile]
- IC50: 3.1 nM

Compound: C=C(F)C(=O)N1CCC[C@@H](n2c(=O)n(-c3ccc(Oc4ccccc4)cc3)c3c(N)nccc32)C1 [Compound 67, (R)-4-amino-1-(1-(2-fluoroacryloyl)piperidin-3-yl)-3-(4-phenoxyphenyl)-1H-imidazo[4,5-c]pyridin-2(3H)-one]
- IC50: 1.2 nM

Compound: CC(C)(C=C(C#N)C(=O)N1CCC[C@@H](n2c(=O)n(-c3ccc(Oc4ccccc4)cc3)c3c(N)nccc32)C1)N1CCNCC1 [Compound 47, (R)-2-(3-(4-amino-2-oxo-3-(4-phenoxyphenyl)-2,3-dihydro-1H-imidazo[4,5-c]pyridin-1-yl)piperidine-1-carbonyl)-4-methyl-4-(piperazin-1-yl)pent-2-enenitrile]
- IC50: 3.1 nM

Compound: COC[C@@H]1CCCN1C(C)(C)C=C(C#N)C(=O)N1CCC[C@@H](n2c(=O)n(-c3ccc(Oc4ccccc4)cc3)c3c(N)nccc32)C1 [Compound 63, 2-((R)-3-(4-amino-2-oxo-3-(4-phenoxyphenyl)-2,3-dihydro-1H-imidazo[4,5-c]pyridin-1-yl)piperidine-1-carbonyl)-4-((S)-2-(methoxymethyl)pyrrolidin-1-yl)-4-methylpent-2-enenitrile]
- IC50: 1.4 nM

Compound: C=CC(=O)N1CCC[C@H]1Cn1c(=O)n(-c2ccc(Oc3ccccc3)cc2)c2c(N)nccc21 [Compound 22, (S)-1-((1-acryloylpyrrolidin-2-yl)methyl)-4-amino-3-(4-phenoxyphenyl)-1H-imidazo[4,5-c]pyridin-2(3H)-one]
- IC50: 4.8 nM

Compound: CC(C)(C=C(C#N)C(=O)N1CCC[C@@H](n2c(=O)n(-c3ccc(Oc4c(F)cccc4F)cc3)c3c(N)nccc32)C1)N1CCN(C2COC2)CC1 [Compound 24, (R)-2-(3-(4-amino-3-(4-(2,6-difluorophenoxy)phenyl)-2-oxo-2,3-dihydro-1H-imidazo[4,5-c]pyridin-1-yl)piperidine-1-carbonyl)-4-methyl-4-(4-(oxetan-3-yl)piperazin-1-yl)pent-2-enenitrile]
- IC50: 4.7 nM

Compound: N#CC(=CC1[C@H]2COC[C@@H]12)C(=O)N1CCC[C@@H](n2c(=O)n(-c3ccc(Oc4ccccc4)cc3)c3c(N)nccc32)C1 (stereo partly drawn) [Compound 53, 2-((R)-3-(4-amino-2-oxo-3-(4-phenoxyphenyl)-2,3-dihydro-1H-imidazo[4,5-c]pyridin-1-yl)piperidine-1-carbonyl)-3-((1R,5S)-3-oxabicyclo[3.1.0]hexan-6-yl)acrylonitrile]
- IC50: 4.2 nM

Compound: CC1(C=C(C#N)C(=O)N2CCC[C@@H](n3c(=O)n(-c4ccc(Oc5ccccc5)cc4)c4c(N)ncnc43)C2)CCN(C2COC2)CC1 [Compound 32, (R)-2-(3-(6-amino-8-oxo-7-(4-phenoxyphenyl)-7H-purin-9(8H)-yl)piperidine-1-carbonyl)-3-(4-methyl-1-(oxetan-3-yl)piperidin-4-yl)acrylonitrile]
- IC50: 2.9 nM

Compound: CCN1CCN(C(C)(C)C=C(C#N)C(=O)N2CCC[C@@H](n3c(=O)n(-c4ccc(Oc5ccccc5)cc4)c4c(N)nccc43)C2)CC1=O [Compound 40, (R)-2-(3-(4-amino-2-oxo-3-(4-phenoxyphenyl)-2,3-dihydro-1H-imidazo[4,5-c]pyridin-1-yl)piperidine-1-carbonyl)-4-(4-ethyl-3-oxopiperazin-1-yl)-4-methylpent-2-enenitrile]
- IC50: 5.7 nM

Compound: CO[C@H]1CCN(C(C)(C)C=C(C#N)C(=O)N2CCC[C@@H](n3c(=O)n(-c4ccc(Oc5ccccc5)cc4)c4c(N)nccc43)C2)C1 [Compound 59, 2-((R)-3-(4-amino-2-oxo-3-(4-phenoxyphenyl)-2,3-dihydro-1H-imidazo[4,5-c]pyridin-1-yl)piperidine-1-carbonyl)-4-((S)-3-methoxypyrrolidin-1-yl)-4-methylpent-2-enenitrile]
- IC50: 2.6 nM

Compound: CCC1(C=C(C#N)C(=O)N2CCC[C@@H](n3c(=O)n(-c4ccc(Oc5ccccc5)cc4)c4c(N)nccc43)C2)CCOCC1 [Compound 65, (R)-2-(3-(4-amino-2-oxo-3-(4-phenoxyphenyl)-2,3-dihydro-1H-imidazo[4,5-c]pyridin-1-yl)piperidine-1-carbonyl)-3-(4-ethyltetrahydro-2H-pyran-4-yl)acrylonitrile]
- IC50: 2.4 nM

Compound: CC(C)(C)OC(=O)N1CCN(C(C)(C)C=C(C#N)C(=O)N2CCC[C@@H](n3c(=O)n(-c4ccc(Oc5ccccc5)cc4)c4c(N)nccc43)C2)CC1 [Compound 43, (R)-tert-butyl 4-(5-(3-(4-amino-2-oxo-3-(4-phenoxyphenyl)-2,3-dihydro-1H-imidazo[4,5-c]pyridin-1-yl)piperidin-1-yl)-4-cyano-2-methyl-5-oxopent-3-en-2-yl)piperazine-1-carboxylate]
- IC50: 22.5 nM

Compound: CC#CC(=O)N1CCC[C@H]1Cn1c(=O)n(-c2ccc(Oc3ccccc3)cc2)c2c(N)nccc21 [Compound 23, (S)-4-amino-1-((1-(but-2-ynoyl)pyrrolidin-2-yl)methyl)-3-(4-phenoxyphenyl)-1H-imidazo[4,5-c]pyridin-2(3H)-one]
- IC50: 25.9 nM

Compound: CN1CCN(c2ccnc(C(C)(C)C=C(C#N)C(=O)N3CCC[C@@H](n4c(=O)n(-c5ccc(Oc6ccccc6)cc5)c5c(N)nccc54)C3)n2)CC1 [Compound 56, (R)-2-(3-(4-amino-2-oxo-3-(4-phenoxyphenyl)-2,3-dihydro-1H-imidazo[4,5-c]pyridin-1-yl)piperidine-1-carbonyl)-4-methyl-4-(4-(4-methylpiperazin-1-yl)pyrimidin-2-yl)pent-2-enenitrile]
- IC50: 7.8 nM

Compound: CC(C)(C=C(C#N)C(=O)N1CCC[C@@H](n2c(=O)n(-c3ccc(Oc4ccccc4F)cc3)c3c(N)nccc32)C1)N1CCN(C2COC2)CC1 [Compound 38, (R)-2-(3-(4-amino-3-(4-(2-fluorophenoxy)phenyl)-2-oxo-2,3-dihydro-1H-imidazo[4,5-c]pyridin-1-yl)piperidine-1-carbonyl)-4-methyl-4-(4-(oxetan-3-yl)piperazin-1-yl)pent-2-enenitrile]
- IC50: 5.7 nM

— patent US9688676B2, “Tyrosine kinase inhibitors” (PRINCIPIA BIOPHARMA INC., priority 2015, dated 2017)
